Each compound was assayed against T1, HaloTag Protein (HTP) on +HTP neurons (Rhodococcus rhodochrous, UniProt P0A3G2, A155T/A167V/A172T/A224E/C128F/C176G/D78G/E160K/E257K/H272N/K175M/K195N/L47V/L88M/N227D/S58T/T264A/Y273L/Y87F) (assay: biotin-HTL capture dose-response on +HTP cultured neurons). Settings: EC 50 (nM), concentration for half-maximal capture on +HTP neurons following 15 minutes of incubation.
T1 construct: SSnlg signal peptide (residues 1-49 of mouse neuroligin-1) (N); ERXL (Kir2.1 trafficking and ER export signals); expressed in transfected cells; host or cells: primary rat hippocampal neurons, electroporated with plasmid
T1 sequence (P0A3G2 other isoform, or with tags, fused parts or gaps with the stated changes): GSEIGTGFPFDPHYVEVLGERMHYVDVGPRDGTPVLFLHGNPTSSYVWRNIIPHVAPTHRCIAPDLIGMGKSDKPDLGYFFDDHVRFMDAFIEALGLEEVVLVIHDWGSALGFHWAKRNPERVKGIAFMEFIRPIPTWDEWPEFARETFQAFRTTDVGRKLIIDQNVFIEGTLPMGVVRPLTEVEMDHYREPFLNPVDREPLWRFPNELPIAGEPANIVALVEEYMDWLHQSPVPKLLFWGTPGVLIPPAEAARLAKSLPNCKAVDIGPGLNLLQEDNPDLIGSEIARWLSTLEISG
Assay type: cell-based, rat
Experimental: (§1) Cultured neuronal assays: Preparation of hippocampal cultures: Mixed glial and neuronal cultures were prepared from the hippocampus of postnatal day 0 to 1 Sprague-Dawley rat pups. Separate pools of dissociated cells were transfected via electroporation (LONZA, V4SP-3096) with plasmid constructs, and depending on assay directives, either plated individually or mixed with a different pool of electroporated cells after a 10 min recovery period. Cells were cultured on coverslips (Deckglaser) pre-treated with high molecular weight poly-D-lysine (Sigma, P7405; 0.05 mg/mL) in 24-well plates and maintained in NbActiv4 (BrainBits, Nb4-500) at 37 C, 5% CO2. Media was changed by half at DIV3 or 4 and then weekly thereafter; experiments were performed between DIV16 to DIV18.
For any given neuronal assay, coverslips were first washed briefly in a resting BASE solution containing (in mM): 4 KCl, 2 CaCl2), 2 MgCl2, 150 NaCl, 10 HEPES, 10 glucose, pH 7.4, before transfer to a glass-bottom, 24-well imaging plate (Cellvis, P24-1.5H—N). Live cell imaging was performed on an Olympus IX83 inverted fluorescent microscope (10× objective, […].) with LED illumination for GFP (Excitation=485 nm), TR (Ex=560 nm), Cy5/Alexa647 (Ex=640 nm) and Cy7/AlexaFluor750 (Cy7=740 nm) depending on the specific assay directives.
biotin-HTL: Dissociated neurons were electroporated with either the +HTP or ddHTP construct and cultured as described above. A dilution series for both the biotin-PEG12-HTL.1 and biotin-PEG12-HTL.2 compounds was made in BASE solution containing 1% BSA (Sigma A7904), representing 12 final concentrations (in uM) between 10 and 0.001. After a brief rinse in BASE+BSA to acclimate the live neurons to room temperature and avoid temperature effects to the binding kinetics, a single coverslip was incubated in one of the twelve dilutions for 15 min, washed twice in BASE+BSA, then incubated in a 1:500 dilution of Streptavidin-AlexaFluor488 (Invitrogen) for 15 min. The neurons were rinsed four times then transferred to a glass-bottom imaging plate containing BASE+BSA. Each coverslip was imaged in its entirety by combining several 10× images (TR at 10 ms; GFP at 100 ms) together using the Olympus CellSens software stitching algorithm. A dose-response curve was created from the individual coverslips using MatLab.
To enable direct quantification of capture efficiency, commercially available HTL (i.e., HTL.1) were conjugated to biotin via a flexible polyethylene glycol linker of moderate length (PEG12), to mimic the longer (PEG36) linker typically used in an RxDART. Capture kinetics were characterized on cultured neurons expressing HTP on their surface [HTPNLG(432-648), as in, to model the cellular microenvironment of interest. Dose-response curves were performed by incubating neuronal coverslips with a given ligand for 15 min, followed by washing, fluorescent labeling of biotin, and quantification of capture. […] Thus, it was reasoned that improving HTL50 would widen the DW for any Rx cargo.
COc1cc(CCCCBr)ccc1OCCCCNC(=O)c1ccc(CNC(=O)CCOCCOCCOCCOCCOCCOCCOCCOCCOCCOCCOCCOCCNC(=O)CCCC[C@@H]2SC[C@@H]3NC(=O)N[C@@H]32)cc1 was tested, and the EC50 was 30 nM.
Compound Nc1cc(CCCCCl)ccc1OCCCCNC(=O)c1ccc(CNC(=O)CCOCCOCCOCCOCCOCCOCCOCCOCCOCCOCCOCCOCCNC(=O)CCCC[C@H]2SC[C@H]3NC(=O)N[C@H]32)cc1 has an EC50 of 70 nM.
COc1cc(CCCCl)ccc1CC(=O)NCCNC(=O)c1ccc(CNC(=O)CCOCCOCCOCCOCCOCCOCCOCCOCCOCCOCCOCCOCCNC(=O)CCCC[C@@H]2SC[C@@H]3NC(=O)N[C@@H]32)cc1 showed an EC50 of 20000 nM.
For COc1cc(CCCCCCl)ccc1CCOCCNC(=O)c1ccc(CNC(=O)CCOCCOCCOCCOCCOCCOCCOCCOCCOCCOCCOCCOCCNC(=O)CCCC[C@@H]2SC[C@@H]3NC(=O)N[C@@H]32)cc1, the EC50 was 4000 nM.
For COc1cc(CCCCl)ccc1CCOCCNC(=O)c1ccc(CNC(=O)CCOCCOCCOCCOCCOCCOCCOCCOCCOCCOCCOCCOCCNC(=O)CCCC[C@@H]2SC[C@@H]3NC(=O)N[C@@H]32)cc1, the EC50 was 10 nM.
O=C(CCCC[C@H]1SC[C@H]2NC(=O)N[C@H]21)NCCOCCOCCOCCOCCOCCOCCOCCOCCOCCOCCOCCOCCC(=O)NCc1ccc(C(=O)NCCCCOc2ccc(CCCCCl)cc2)cc1 was tested, and the EC50 was 110 nM.
O=C(CCCC[C@@H]1SC[C@@H]2NC(=O)N[C@@H]21)NCCOCCOCCOCCOCCOCCOCCOCCOCCOCCOCCOCCOCCC(=O)NCc1ccc(C(=O)NCCOCCOCCCCCCCl)cc1 was tested, and the EC50 was 150 nM.
COc1cc(CCCCl)ccc1C(=O)NCCCNC(=O)c1ccc(CNC(=O)CCOCCOCCOCCOCCOCCOCCOCCOCCOCCOCCOCCOCCNC(=O)CCCC[C@@H]2SC[C@@H]3NC(=O)N[C@@H]32)cc1 [drawing 135] was tested, and the EC50 was 200 nM.
With COc1cc(CCCCl)ccc1C(=O)NCCCNC(=O)c1ccc(CNC(=O)CCOCCOCCOCCOCCOCCOCCOCCOCCOCCOCCOCCOCCNC(=O)CCCC[C@@H]2SC[C@@H]3NC(=O)N[C@@H]32)cc1 [drawing 133] the EC50 was 200 nM.
For COc1cc(/C=C/CCCl)ccc1CCOCCNC(=O)c1ccc(CNC(=O)CCOCCOCCOCCOCCOCCOCCOCCOCCOCCOCCOCCOCCNC(=O)CCCC[C@@H]2SC[C@@H]3NC(=O)N[C@@H]32)cc1, the EC50 was 20 nM.
CCOc1cc(CCCCCl)ccc1OCCCCNC(=O)c1ccc(CNC(=O)CCOCCOCCOCCOCCOCCOCCOCCOCCOCCOCCOCCOCCNC(=O)CCCC[C@@H]2SC[C@@H]3NC(=O)N[C@@H]32)cc1 gave an EC50 of 70 nM.
In the case of COc1cc(CCCCCl)ccc1CCOCCNC(=O)c1ccc(CNC(=O)CCOCCOCCOCCOCCOCCOCCOCCOCCOCCOCCOCCOCCNC(=O)CCCC[C@@H]2SC[C@@H]3NC(=O)N[C@@H]32)cc1, the EC50 is reported as 30 nM.
For O=C(CCCC[C@@H]1SC[C@@H]2NC(=O)N[C@@H]21)NCCOCCOCCOCCOCCOCCOCCOCCOCCOCCOCCOCCOCCC(=O)NCc1ccc(C(=O)NCCCCOc2ccc(CCCCCl)cc2OC(F)(F)F)cc1, the EC50 was 1500 nM.
COc1c(/C=C\CCCl)cccc1OCCCCNC(=O)c1ccc(CNC(=O)CCOCCOCCOCCOCCOCCOCCOCCOCCOCCOCCOCCOCCNC(=O)CCCC[C@@H]2SC[C@@H]3NC(=O)N[C@@H]32)cc1 gave an EC50 of 55 nM.
O=C(CCCC[C@@H]1SC[C@@H]2NC(=O)N[C@@H]21)NCCOCCOCCOCCOCCOCCOCCOCCOCCOCCOCCOCCOCCC(=O)NCc1ccc(C(=O)NCCCCOc2ccc(CCCCCl)cc2Cl)cc1 showed an EC50 of 100 nM.
O=C(CCCC[C@@H]1SC[C@@H]2NC(=O)N[C@@H]21)NCCOCCOCCOCCOCCOCCOCCOCCOCCOCCOCCOCCOCCC(=O)NCCOCCOCCCCCCCl was tested, and the EC50 was 1000 nM.
Work on COc1cc(CCCCl)ccc1OCCCCNC(=O)c1ccc(CNC(=O)CCOCCOCCOCCOCCOCCOCCOCCOCCOCCOCCOCCOCCNC(=O)CCCC[C@@H]2SC[C@@H]3NC(=O)N[C@@H]32)cc1 yielded an EC50 of 50 nM.
With COc1cc(CCCCl)ccc1C(=O)NCCCNC(=O)c1ccc(CNC(=O)CCOCCOCCOCCOCCOCCOCCOCCOCCOCCOCCOCCOCCNC(=O)CCCC[C@@H]2SC[C@@H]3NC(=O)N[C@@H]32)cc1 [drawing 134] the EC50 was 280 nM.
O=C(CCCC[C@@H]1SC[C@@H]2NC(=O)N[C@@H]21)NCCOCCOCCOCCOCCOCCOCCOCCOCCOCCOCCOCCOCCC(=O)NCc1ccc(C(=O)NCCCCOc2ccc(CCCCCl)cc2O)cc1 gave an EC50 of 30 nM.
Compound COc1cc(CCCCI)ccc1OCCCCNC(=O)c1ccc(CNC(=O)CCOCCOCCOCCOCCOCCOCCOCCOCCOCCOCCOCCOCCNC(=O)CCCC[C@@H]2SC[C@@H]3NC(=O)N[C@@H]32)cc1 has an EC50 of 30 nM.
O=C(CCCC[C@H]1SC[C@H]2NC(=O)N[C@H]21)NCCOCCOCCOCCOCCOCCOCCOCCOCCOCCOCCOCCOCCC(=O)NCc1ccc(C(=O)NCCCCOc2ccc(CCCCCl)cc2F)cc1 showed an EC50 of 45 nM.

The compounds below were run on endogenous GABAARs (assay: all-optical assay of GABAAR antagonism in primary neuronal culture). Settings: ddHTP vs +HTP cells, 15 min, 15 uM GABA.
Assay type: cell-based, rat
Experimental: as §1
Gabazine: Dissociated neurons were electroporated with constructs and cultured for 2 weeks. The assay was performed in the same BASE solution as described above, but with the addition of synaptic blockers CPP (NMDAR antagonist; Tocris) and NBQX (AMPAR antagonist; Abcam, ab120046) to isolate GABAR activity, and a small amount of GABA (GABAR agonist; Sigma) to ensure GABAR activity (=GABAR-BASE). […] Instead, a high dose of regular gabazine was used to completely silence any cells that may not have had realized full antagonism by the end of the assay. Imaging alignment, proof-reading and analysis were performed in a similar fashion to the AMPAR assay using MatLab.
It was next focused on blocking the GABAAR, a ubiquitous transducer of synaptic inhibition. […] The structure-activity literature of gabazine, a selective GABAAR antagonist, was explored. The core gabazine pharmacophore includes of a 3-amino, 6-phenoxy-pyridazine ring, with GABA embedded in the 2-position (2 butyric acid). Based on historical, low-potency predecessors of gabazine, a longer GABA moiety (2 pentanoic acid), and methyl substituents (e.g., 5-CH3) were explored (FIG. 2F). For each variant, the 6-phenoxy moiety was modified to make a gabazinealkyne module, which was click-conjugated to DART.2. Several variants were made, including gabazine.1^DART.2 (2 butyric acid, 5-H), gabazine.5DART.2 (2 pentanoic acid, 5-H), and gabazine.7DART.2 (2 pentanoic acid, 5-CH3). An all-optical assay of endogenous GABAARs in primary neuronal culture was then developed. […] Excitatory synapses were blocked, such that opto-stimulation with ChR2 became the only source of neural excitation.
For COc1cc(CCCCl)ccc1CCOCCNC(=O)c1ccc(CNC(=O)CCOCCOCCOCCOCCOCCOCCOCCOCCOCCOCCOCCOCCOCCOCCOCCOCCOCCOCCOCCOCCOCCOCCOCCOCCOCCOCCOCCOCCOCCOCCOCCOCCOCCOCCOCCOCCn2cc(COCCOCCOCCOCCOCCOCCOCCCCCCOc3ccc(-c4ccc(=N)n(CCCCC(=O)O)n4)cc3)nn2)cc1 [gabazine.5^DART.2], the “DW (t=15 m)” value was 1,500.

These compounds were tested on endogenous GABAAR (assay: all-optical assay of GABAAR positive allosteric modulation in primary neuronal culture). Settings: not given.
Assay type: cell-based, rat
Experimental: as §1
Diazepam/Flumazenil: Dissociated neurons were electroporated with constructs and cultured for 2 weeks. The assay was performed in a modified GABAR-BASE, with an increased KCl concentration to enhance neuronal excitability and a lowered GABA level for a baseline. Again, a DRUG plate and three DoseGroups were used as described above for dosing, but no final WASH. […] Imaging alignment, proof-reading and analysis were performed in a similar fashion to the GABAR assay using MatLab.
Next it was sought to extend DART to allosteric modulators. The allosteric binding site of the GABAAR, known to bind several drugs, with effects ranging from negative to positive allosteric modulation was first analyzed. Diazepam represents the prototypic PAM at this site, and is the most clinically significant of the class. Thus, a diazepam analog was synthesized with a short alkyne attached to the amide of the diazepam core; an attachment site known to tolerate substituents and thought from structural inspection of the GABAAR-bound diazepam pose to allow linker access to free solution. Click chemistry was used to assemble the full-length diazepam.1DART.2 and leveraged an all-optical assay of endogenous GABAARs in primary neuronal culture, with ChR2 and GCaMP6s in the same cell.
CCOC(=O)c1ncn2c1CN(C)C(=O)c1cc(F)ccc1-2 [flumazenil, reference compound] was tested, and the GABAAR receptor modulation was “no receptor modulation”.

Same assay, conditions: traditional (non-DART) version
CN1C(=O)CN=C(c2ccccc2)c2cc(Cl)ccc21 [diazepam, reference compound] was tested, and the “effect on +HTP vs ddHTP cells” value was “equally affected”.

— patent US20250213700A1, “COMPOUNDS, COMPOSITIONS, AND METHODS FOR CELL-SPECIFIC PHARMACOLOGY” (Duke University, priority 2022, published 2025)
